Holding throughout (assay): relative viability (nuclei count vs DMSO), 5 days (fraction); higher = more cells survive
Compound in assay [1]: COC1=CC=C(C=C1)CN2C=CC3=C2C=C(C=C3)C(=O)NO + Nc1nc2[nH]cc(CCc3ccc(C(=O)N[C@@H](CCC(=O)O)C(=O)O)cc3)c2c(=O)[nH]1 [Pemetrexed] (partner 0.2 µM)
Summed up: (§1)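 Lung cancer cell lines, seeded in 1536-well plates, were treated the following day by pin tool with a single drug or with five library-drug doses (not always all listed) in √10 steps on top of a fixed anchor-drug dose. Cells were fixed and nuclei stained in one step after 5 days, and nuclei were counted. Relative viability is the nuclei count for treated wells divided by that for vehicle wells, reported as medians of duplicate plates.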

Compound in assay [2]: COC1=CC=C(C=C1)CN2C=CC3=C2C=C(C=C3)C(=O)NO + CC1(C)CCC(c2ccc(Cl)cc2)=C(CN2CCN(c3ccc(C(=O)NS(=O)(=O)c4ccc(N[C@H](CCN5CCOCC5)CSc5ccccc5)c(S(=O)(=O)C(F)(F)F)c4)cc3)CC2)C1 [Navitoclax] (partner 0.5 µM)
Summed up: as §1

Compound in assay [3]: COC1=CC=C(C=C1)CN2C=CC3=C2C=C(C=C3)C(=O)NO + CC(C)C[C@H](NC(=O)[C@H](Cc1ccccc1)NC(=O)c1cnccn1)B(O)O [Bortezomib] (partner 0.002 µM)
Summed up:
as §1

Compound in the assay “Veliparib + Phenformin”: C[C@]1(c2nc3c(C(N)=O)cccc3[nH]2)CCCN1 [Veliparib] + N=C(N)NC(=N)NCCc1ccccc1 [Phenformin] (partner 250 µM)
The method, boiled down: as §1

As for PC-14, the relative viability in assay [1] (first compound 0.08 µM) stood at 0.107; in assay [1] (first compound 0.253 µM) it was 0.132; in assay [1] (first compound 0.8 µM) it was 0.14; in assay [1] (first compound 2.53 µM), 0.135; in assay [1] (first compound 8 µM), 0.152; in assay [2] (first compound 0.08 µM), 0.869. For the same cell line, the relative viability was 1.04 in assay [2] (first compound 0.253 µM); 1.01 in assay [2] (first compound 0.8 µM); 1.14 in assay [2] (first compound 2.53 µM); 1.02 in assay [2] (first compound 8 µM); 0.706 in assay [3] (first compound 0.08 µM); 0.726 in assay [3] (first compound 0.253 µM). Also, the relative viability came out at 0.954 in assay [3] (first compound 0.8 µM); 0.956 in assay [3] (first compound 2.53 µM); 0.937 in assay [3] (first compound 8 µM); 0.526 with Veliparib + Phenformin (first compound 0.06325 µM); 0.647 in the assay with Veliparib + Phenformin (first compound 0.2 µM); 0.59 in the assay with Veliparib + Phenformin (first compound 0.6325 µM). The relative viability with Veliparib + Phenformin (first compound 2 µM) amounted to 0.435.
Take RERF-LC-KJ: the relative viability in assay [1] (first compound 0.08 µM) is 0.442; in assay [1] (first compound 0.253 µM), 0.502; in assay [1] (first compound 0.8 µM), 0.482; in assay [1] (first compound 2.53 µM), 0.501; in assay [1] (first compound 8 µM) it was 0.521; in assay [2] (first compound 0.08 µM) it was 0.934. Moreover, the relative viability in assay [2] (first compound 0.253 µM) came out at 0.852; in assay [2] (first compound 0.8 µM), 0.903; in assay [2] (first compound 2.53 µM) it was 1.04; in assay [2] (first compound 8 µM), 0.926; in assay [3] (first compound 0.08 µM), 1.08; in assay [3] (first compound 0.253 µM) it was 1.13. Moreover, the relative viability in assay [3] (first compound 0.8 µM) was found to be 1.11; in assay [3] (first compound 2.53 µM) it was 1.13; in assay [3] (first compound 8 µM), 1.06; in the assay with Veliparib + Phenformin (first compound 0.02 µM), 0.408; with Veliparib + Phenformin (first compound 0.06325 µM), 0.442; with Veliparib + Phenformin (first compound 0.2 µM) it was 0.4. In addition, the values for the relative viability with Veliparib + Phenformin (first compound 0.6325 µM) and with Veliparib + Phenformin (first compound 2 µM) were 0.396 and 0.47, respectively.
As to SK-LU-1, the relative viability in assay [1] (first compound 0.08 µM) came to 0.942; in assay [1] (first compound 0.253 µM), 0.973; in assay [1] (first compound 0.8 µM), 1; in assay [1] (first compound 2.53 µM), 1.01; in assay [1] (first compound 8 µM), 0.953; in assay [2] (first compound 0.08 µM), 0.849. For the same cell line, the relative viability in assay [2] (first compound 0.253 µM) came to 1; in assay [2] (first compound 0.8 µM), 1; in assay [2] (first compound 2.53 µM) it was 0.815; in assay [2] (first compound 8 µM) it was 0.745; in assay [3] (first compound 0.253 µM), 1.08; in assay [3] (first compound 0.8 µM), 1.58. The relative viability in assay [3] (first compound 2.53 µM) turned out to be 1.14; in assay [3] (first compound 8 µM), 0.817; in the assay with Veliparib + Phenformin (first compound 0.02 µM), 0.588; in the assay with Veliparib + Phenformin (first compound 0.06325 µM), 0.524; with Veliparib + Phenformin (first compound 0.2 µM) it was 0.544; in the assay with Veliparib + Phenformin (first compound 0.6325 µM), 0.512. In addition, in the assay with Veliparib + Phenformin (first compound 2 µM), the relative viability was determined as 0.506.
Consider UMC-11, for which the relative viability in assay [1] (first compound 0.08 µM) stood at 0.568; in assay [1] (first compound 0.253 µM), 0.854; in assay [1] (first compound 0.8 µM), 0.823; in assay [1] (first compound 2.53 µM) it was 0.793; in assay [1] (first compound 8 µM), 0.784; in assay [2] (first compound 0.08 µM), 0.197. In addition, the relative viability in assay [2] (first compound 0.253 µM) came out at 0.341; in assay [2] (first compound 0.8 µM) it was 0.316; in assay [2] (first compound 2.53 µM), 0.317; in assay [2] (first compound 8 µM), 0.339; in assay [3] (first compound 0.08 µM), 0.665; in assay [3] (first compound 0.253 µM), 0.668. For the same cell line, the relative viability was determined as 0.809 in assay [3] (first compound 0.8 µM); 0.67 in assay [3] (first compound 2.53 µM); 0.634 in assay [3] (first compound 8 µM); 0.334 with Veliparib + Phenformin (first compound 0.02 µM); 0.316 in the assay with Veliparib + Phenformin (first compound 0.06325 µM); 0.312 with Veliparib + Phenformin (first compound 0.2 µM). For the same cell line, the relative viability was 0.284 in the assay with Veliparib + Phenformin (first compound 0.6325 µM) and 0.314 with Veliparib + Phenformin (first compound 2 µM).

The record behind these values is the supplement of paper PMC10307832.
